Assay results as given in patent US20150119373A1, “NOVEL BETULINIC ACID DERIVATIVES AS HIV INHIBITORS” (HETERO RESEARCH FOUNDATION, priority 2012, published 2015).

Key:
HIV-1 strain 92HT599 = test: Antiviral activity: p24 estimation in MT2 cells infected with HIV-1 strain 92HT599; type: cell-based; conditions: Human immunodeficiency virus 1, MT2 cells, HIV-1 92HT599, ~96 hours, p24; for inhibition at 0.1 µM: 100 nM, read-out: Antiviral activity % inhibition 100 nM; for inhibition at 1 µM: 1000 nM, read-out: Antiviral activity % inhibition 1000 nM
In short: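 Infection of MT2 cells used 10 TCID50/30000 cells, with compound present at ≤1% DMSO for ~96 h. p24 in well aliquots was quantified by kit. Percent inhibition is relative to vehicle controls.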

[1] = Single dose oral pharmacokinetic study in mice; type: in vivo; conditions: for AUC(0-inf) / Cmax / AUC(0-t) / half-life / Tmax: mouse, plasma; for half-life: read-out: t½ (converted)
In short: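 Mice or rats dosed orally at 30 mg/kg in a suitable vehicle (10 ml/kg). Retro-orbital blood on K3 EDTA at defined time points under light ether anaesthesia; plasma analysed by LC-MS-MS.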

[2] = Single dose oral pharmacokinetic study in rat; type: in vivo; conditions: plasma, Rat oral PK @30 mg/kg (Table 3); for half-life: read-out: t½ (converted)
Method: The test item was administered through oral route to animals (rat/mice) at 30 mg/kg dose in a suitable vehicle at 10 ml/kg dose volume. Blood samples (˜50 uL at each time point) were collected from retro-orbital plexus using K3 EDTA as anticoagulant in eppendorf tubes at defined time intervals under light ether anesthesia. The samples were centrifuged at 3500×g to separate plasma and stored at −80° C. until analysis.
Sample analysis: Test samples were analyzed using LC-MS-MS after developing fit-for-purpose method for each of test compound.

[3] = Cyto-toxicity assay (MTT) in MT2 cells without virus; type: cell-based; conditions: human
Method: For cyto-toxicity assay the same amount of MT2 cells as in antiviral assay without virus was added to the 96 well plates. The cyto-toxicity was measured using MTT reagent in parallel with p24 estimation. The percent viability is calculated in comparison with vehicle control.

[4] = Mice oral PK @30 mg/kg (Table 4)
[5] = Mice oral PK @30 mg/kg (Table 4), read-out: AUC 0-t
[6] = Oral PK @ 30 mg/ kg dose in mice (Table 6)
[7] = Oral PK @ 30 mg/ kg dose in mice (Table 6), read-out: AUCt

| Structure (SMILES) | inhibition at 0.1 µM (HIV-1 strain 92HT599) | inhibition at 1 µM (HIV-1 strain 92HT599) | AUC(0-inf) [1, 4] | Cmax [1, 4] | AUC(0-t) [1, 5] | half-life [1, 4] | AUC(0-inf) [2] | AUC(0-t) [2] | Cmax [2] | half-life [2] | viability at 100 nM [3] | viability at 1000 nM [3] | Tlast [1, 6] | AUC(0-inf) [1, 6] | Cmax [1, 6] | Tmax [1, 6] | AUC(0-t) [1, 7] |
| --- | --- | --- | --- | --- | --- | --- | --- | --- | --- | --- | --- | --- | --- | --- | --- | --- | --- |
| C=C(C)[C@@H]1CC[C@]2(C(=O)O)CC[C@]3(C)[C@H](CC[C@@H]4[C@@]5(C)CC[C@H](OC(=O)[C@H]6[C@@H](CC(=O)O)C6(C)C)C(C)(C)[C@@H]5CC[C@]43C)[C@@H]12 [Compound 1, (1R,3aS,5aR,5bR,7aR,9S,11aR,11bR,13aR,13bR)-9-((1S,3R)-3-(carboxymethyl)-2,2-dimethylcyclopropanecarbonyloxy)-5a,5b,8,8,11a-pentamethyl-1-(prop-1-en-2-yl)icosahydro-1H-cyclopenta[a]chrysene-3a-carboxylic acid] | 95% | 100% | 36700 ng·h/mL | 8790 ng/mL | 35900 ng·h/mL | 6.23 h | 3230 ng·h/mL | 3120 ng·h/mL | 1220 ng/mL | 1.53 h | 96% | 92% |  |  |  |  |  |
| CC(C)(CC(=O)O[C@H]1CC[C@]2(C)[C@H]3CC[C@@H]4[C@H]5[C@H](C6(C)CC6)CC[C@]5(C(=O)N[C@@H]5C[C@H](C(=O)N6CCCCC6)C5(C)C)CC[C@@]4(C)[C@]3(C)CC[C@H]2C1(C)C)C(=O)O [Example 4, 4-((1R,3aS,5aR,5bR,7aR,9S,11aR,11bR,13aR,13bR)-3a-((1R,3S)-2,2-dimethyl-3-(piperidine-1-carbonyl)cyclobutylcarbamoyl)-5a,5b,8,8,11a-pentamethyl-1-(1-methylcyclopropyl)icosahydro-1H-cyclopenta[a]chrysen-9-yloxy)-2,2-dimethyl-4-oxobutanoicacid] | 98% | 98% | 155000 ng·h/mL | 9780 ng/mL | 138000 ng·h/mL | 14.5 h | 22600 ng·h/mL | 22300 ng·h/mL | 5920 ng/mL | 4.44 h | 82% | 86% |  |  |  |  |  |
| C=C(C)[C@@H]1CC[C@]2(C(=O)N[C@@H]3C[C@H](c4nnc(C)o4)C3(C)C)CC[C@]3(C)[C@H](CC[C@@H]4[C@@]5(C)CC[C@H](OC(=O)CC(C)(C)C(=O)O)C(C)(C)[C@@H]5CC[C@]43C)[C@@H]12 [Example 11, 4-((1R,3aS,5aR,5bR,7aR,9S,11aR,11bR,13aR,13bR)-3a-((1R,3S)-2,2-dimethyl-3-(5-methyl-1,3,4-oxadiazol-2-yl)cyclobutylcarbamoyl)-5a,5b,8,8,11a-pentamethyl-1-(prop-1-en-2-yl)icosahydro-1H-cyclopenta[a]chrysen-9-yloxy)-2,2-dimethyl-4-oxo butanoicacid] | 100% | 100% | 138000 ng·h/mL | 11300 ng/mL | 115000 ng·h/mL | 3.66 h | 8160 ng·h/mL | 8050 ng·h/mL | 1970 ng/mL | 3.66 h | 96% | 98% |  |  |  |  |  |
| CC(C)(CC(=O)O[C@H]1CC[C@]2(C)[C@H]3CC[C@@H]4[C@H]5[C@H](C6(C)CC6)CC[C@]5(C(=O)N5CCC(C(=O)NCCN6CCOCC6)CC5)CC[C@@]4(C)[C@]3(C)CC[C@H]2C1(C)C)C(=O)O [Example 49, 2,2-dimethyl-4-oxo-4-(((1R,3aS,5aR,5bR,7aR,9S,11aR,11bR,13aR,13bR)-5a,5b,8,8,11a-pentamethyl-1-(1-methylcyclopropyl)-3a-(4-((2-morpholinoethyl)carbamoyl)piperidine-1-carbonyl)icosahydro-1H-cyclopenta[a]chrysen-9-yl)oxy)butanoic acid] | 99% | 98% |  |  |  |  |  |  |  |  | 85% | 88% | 48 h | 38800 ng·h/mL | 5600 ng/mL | 1.3 h | 38700 ng·h/mL |
| COCCOCCN1CCN(C(=O)[C@]23CC[C@@H](C4(C)CC4)[C@@H]2[C@H]2CC[C@@H]4[C@@]5(C)CC[C@H](OC(=O)[C@H]6C[C@@H](C(=O)O)C6(C)C)C(C)(C)[C@@H]5CC[C@@]4(C)[C@]2(C)CC3)CC1 [Example 40, (1R,3S)-3-((((1R,3aS,5aR,5bR,7aR,9S,11aR,11bR,13aR,13bR)-3a-(4-(2-(2-methoxyethoxy)ethyl)piperazine-1-carbonyl)-5a,5b,8,8,11a-pentamethyl-1-(1-methylcyclopropyl)icosahydro-1H-cyclopenta[a]chrysen-9-yl)oxy)carbonyl)-2,2-dimethylcyclobutane-1-carboxylic acid] | 100% | 99% |  |  |  |  |  |  |  |  | 79% | 81% | 48 h | 119000 ng·h/mL | 7000 ng/mL | 4 h | 111000 ng·h/mL |
